Measured values taken from PubChem BioAssay AID200 (DTP/NCI, 2004).
Where “and” joins values, the source holds several entries; their conditions need not be identical. Equal entries are not always repeated. Inconclusive results and toxic doses are left out. Where a SMILES comes first, the peptide text is derived from it. [ ]: non-standard residue; d: D form. The star is where a group is joined. Cbz = O=C(OCc1ccccc1)*; Nva = CCC[CH](N)C(=O)O

Test system: B6C3F1 mice, B16 melanoma ip, median survival T/C
Assay: NCI In Vivo Anticancer Drug Screen. Data for tumor model B16 Melanoma (intraperitoneal) in B6C3F1 mice
Settings: endpoint: median survival time, schedule: Q01DX009 (ip), higher = longer survival
Method in brief: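 Tumor-bearing mice received test compound; a separate group got vehicle only. Survival was then compared, with results reported as treated over control.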

[1] = dose: 6.25 mg/kg/injection, vehicle: saline with Tween-80
[2] = dose: 12.5 mg/kg/injection, vehicle: saline with Tween-80
[3] = dose: 25.0 mg/kg/injection, vehicle: saline with Tween-80
[4] = dose: 50.0 mg/kg/injection, vehicle: saline with Tween-80
[5] = dose: 100.0 mg/kg/injection, vehicle: saline with Tween-80
[6] = dose: 200.0 mg/kg/injection, vehicle: saline with Tween-80
[7] = dose: 25.0 mg/kg/injection, vehicle: saline
[8] = dose: 50.0 mg/kg/injection, vehicle: saline
[9] = dose: 200.0 mg/kg/injection, vehicle: saline
[10] = dose: 400.0 mg/kg/injection, vehicle: saline with Tween-80
[11] = dose: 6.25 mg/kg/injection, vehicle: saline
[12] = dose: 12.5 mg/kg/injection, vehicle: saline
[13] = dose: 100.0 mg/kg/injection, vehicle: saline
[14] = dose: 50.0 mg/kg/injection, vehicle: Klucel (hydroxypropylcellulose) (HPC)
[15] = dose: 100.0 mg/kg/injection, vehicle: Klucel (hydroxypropylcellulose) (HPC)
[16] = dose: 200.0 mg/kg/injection, vehicle: Klucel (hydroxypropylcellulose) (HPC)
[17] = dose: 1.56 mg/kg/injection, vehicle: saline
[18] = dose: 3.12 mg/kg/injection, vehicle: saline

Question: What does the source list for `COC1=C(OC)C(=O)C(C/C=C(\C)CC/C=C(\C)CC/C=C(\C)CC/C=C(\C)CC/C=C(\C)CC/C=C(\C)CC/C=C(\C)CC/C=C(\C)CC/C=C(\C)CCC=C(C)C)=C(C)C1=O`?
Answer: T/C [1]: 91 % of control; T/C [2]: 97 % of control and 101 % of control; T/C [3]: 93 % of control and 96 % of control; T/C [4]: 97 % of control; T/C [5]: 94 % of control and 98 % of control; T/C [6]: 87 % of control and 90 % of control

Question: `N=C1CCCS1` was tested. Which T/C [7] did it give?
Answer: 109 % of control

Question: And the T/C [8]?
Answer: 120 % of control

Question: With `O=C(CCl)N1c2ccccc2Oc2cc3ccccc3cc21` as the molecule, how does the T/C [4] read?
Answer: 111 % of control

Question: And the T/C [5]?
Answer: 108 % of control

Question: What about the T/C [6] of the same molecule?
Answer: 97 % of control

Question: And the T/C [9]?
Answer: 122 % of control and 95 % of control

Question: What about the T/C [10] of the same molecule?
Answer: 92 % of control

Question: What about the T/C (dose: 400.0 mg/kg/injection, vehicle: saline) of the same molecule?
Answer: 97 % of control and 100 % of control

Question: What does the source list for `NCCCNCCCCNC(=O)C(O)NC(=O)CC(O)CCCCN=C(N)N` (stereo not drawn)?
Answer: T/C [11]: 101 % of control; T/C [12]: 99 % of control; T/C [7]: 98 % of control and 101 % of control; T/C [8]: 99 % of control and 101 % of control; T/C [13]: 111 % of control and 107 % of control

Question: Which results are given for `NNC(=S)N/N=C/c1ccc([N+](=O)[O-])s1`?
Answer: T/C (dose: 0.78 mg/kg/injection, vehicle: Klucel (hydroxypropylcellulose) (HPC)): 105 % of control; T/C (dose: 1.56 mg/kg/injection, vehicle: Klucel (hydroxypropylcellulose) (HPC)): 99 % of control; T/C (dose: 3.12 mg/kg/injection, vehicle: Klucel (hydroxypropylcellulose) (HPC)): 104 % of control; T/C (dose: 6.25 mg/kg/injection, vehicle: Klucel (hydroxypropylcellulose) (HPC)): 104 % of control

Question: `O=C1NC(=O)C2(CCC(C3CCCCC3)CC2)N1` (stereo not drawn) was tested. Which T/C [14] did it give?
Answer: 87 % of control

Question: And the T/C [15]?
Answer: 89 % of control

Question: What about the T/C [16] of the same molecule?
Answer: 89 % of control

Question: Which results are given for `CCCC(=O)O`?
Answer: T/C [12]: 100 % of control; T/C [7]: 96 % of control; T/C [8]: 93 % of control; T/C [13]: 98 % of control; T/C [9]: 93 % of control

Question: With `C=C1C(O)C2OC3(CCC(/C=C/C(C)C4CC5(C)SC5C5(OC(CC(C)(O)C(=O)O)CCC5O)O4)O3)CCC2OC1C(O)CC(C)C1OC2(CCCCO2)CCC1C` (stereo not drawn) as the molecule, how does the T/C (dose: 1.25 micrograms/kg/injection, vehicle: saline + alcohol) read?
Answer: 104 % of control

Question: And the T/C (dose: 2.5 micrograms/kg/injection, vehicle: saline + alcohol)?
Answer: 111 % of control

Question: And the T/C (dose: 5.0 micrograms/kg/injection, vehicle: saline + alcohol)?
Answer: 120 % of control

Question: And the T/C (dose: 20.0 micrograms/kg/injection, vehicle: saline + alcohol)?
Answer: 97 % of control

Question: With `Cn1cnc([N+](=O)[O-])c1Sc1ncn[nH]1` as the molecule, how does the T/C [12] read?
Answer: 108 % of control

Question: And the T/C (dose: 12.5 mg/kg/injection, vehicle: suspension in saline)?
Answer: 109 % of control

Question: What about the T/C [7] of the same molecule?
Answer: 102 % of control

Question: What about the T/C (dose: 25.0 mg/kg/injection, vehicle: suspension in saline) of the same molecule?
Answer: 115 % of control

Question: And the T/C [8]?
Answer: 108 % of control

Question: What about the T/C (dose: 50.0 mg/kg/injection, vehicle: suspension in saline) of the same molecule?
Answer: 100 % of control

Question: What about the T/C [13] of the same molecule?
Answer: 108 % of control

Question: And the T/C (dose: 100.0 mg/kg/injection, vehicle: suspension in saline)?
Answer: 101 % of control

Question: And the T/C [9]?
Answer: 108 % of control

Question: What about the T/C (dose: 200.0 mg/kg/injection, vehicle: suspension in saline) of the same molecule?
Answer: 102 % of control

Question: What does the source list for `COc1cc(/C=C/[N+](=O)[O-])cc(Br)c1OC`?
Answer: T/C (dose: 0.75 mg/kg/injection, vehicle: saline with Tween-80): 102 % of control; T/C (dose: 1.5 mg/kg/injection, vehicle: saline with Tween-80): 112 % of control; T/C (dose: 3.0 mg/kg/injection, vehicle: saline with Tween-80): 98 % of control; T/C (dose: 6.0 mg/kg/injection, vehicle: saline with Tween-80): 97 % of control; T/C [1]: 91 % of control; T/C (dose: 12.0 mg/kg/injection, vehicle: saline with Tween-80): 93 % of control

Question: What does the source list for `[N-]=[N+]=[N-]`?
Answer: T/C (dose: 1.5 mg/kg/injection, vehicle: saline): 101 % of control; T/C (dose: 3.0 mg/kg/injection, vehicle: saline): 90 % of control; T/C (dose: 6.0 mg/kg/injection, vehicle: saline): 103 % of control; T/C (dose: 12.0 mg/kg/injection, vehicle: saline): 108 % of control

Question: Which results are given for `Cc1ccc(N)c(N)c1`?
Answer: T/C [3]: 95 % of control; T/C [4]: 99 % of control; T/C [5]: 102 % of control; T/C [6]: 104 % of control

Question: What does the source list for `CCC(C(=O)O)C(=O)O.[NH2-].[NH2-].[Pt+2]`?
Answer: T/C [17]: 117 % of control; T/C [18]: 102 % of control; T/C [11]: 102 % of control; T/C [7]: 154 % of control; T/C [8]: 102 % of control

Question: `CCCC1CCC(=C2C(=O)CCC2=O)O1` (stereo not drawn) was tested. Which T/C [3] did it give?
Answer: 103 % of control

Question: And the T/C [4]?
Answer: 98 % of control

Question: Which T/C (dose: 20.0 mg/kg/injection, vehicle: distilled water + Tween-80) does the source give for `CN(C)CCNc1ccc(NCCN(C)C)c2c1C(=O)c1ccccc1C2=O` here?
Answer: 117 % of control

Question: `[Cl][Pt+2][Cl].[NH-]c1ccccc1[NH-]` was tested. Which T/C (dose: 0.63 mg/kg/injection, vehicle: saline with Tween-80) did it give?
Answer: 99 % of control

Question: And the T/C (dose: 1.25 mg/kg/injection, vehicle: saline with Tween-80)?
Answer: 111 % of control

Question: And the T/C (dose: 5.0 mg/kg/injection, vehicle: saline with Tween-80)?
Answer: 150 % of control

Question: What does the source list for `CCCC(NC(=O)OCc1ccccc1)C(=O)NC(CCSC)C(=O)O` (stereo not drawn) (Cbz-[Nva]-Met-OH; configuration not given here)?
Answer: T/C [15]: 100 % of control; T/C [16]: 104 % of control; T/C (dose: 400.0 mg/kg/injection, vehicle: Klucel (hydroxypropylcellulose) (HPC)): 96 % of control

Question: `COc1cc(C[C@@H]2COC(=O)[C@]2(O)Cc2ccc(O)c(OC)c2)ccc1O` was tested. Which T/C (dose: 1.0 mg/kg/injection, vehicle: saline + alcohol) did it give?
Answer: 102 % of control

Question: And the T/C (dose: 2.0 mg/kg/injection, vehicle: saline + alcohol)?
Answer: 88 % of control

Question: What about the T/C (dose: 4.0 mg/kg/injection, vehicle: saline + alcohol) of the same molecule?
Answer: 91 % of control

Question: And the T/C (dose: 8.0 mg/kg/injection, vehicle: saline + alcohol)?
Answer: 101 % of control

Question: And the T/C (dose: 16.0 mg/kg/injection, vehicle: saline + alcohol)?
Answer: 86 % of control

Question: `Nc1cc(Cl)c(N=Nc2ccccc2)c(N)n1` was tested. Which T/C [5] did it give?
Answer: 89 % of control

Question: And the T/C [6]?
Answer: 90 % of control

Question: `NC1=NC(=O)N2CC12` (stereo not drawn) was tested. Which T/C [12] did it give?
Answer: 105 % of control

Question: And the T/C [7]?
Answer: 95 % of control

Question: And the T/C [8]?
Answer: 95 % of control

Question: What about the T/C [13] of the same molecule?
Answer: 89 % of control

Question: With `N/C(=N\OC(=O)Nc1ccc(CSc2ccc(Cl)cc2)o1)c1ccccn1` as the molecule, how does the T/C (dose: 12.5 mg/kg/injection, vehicle: Klucel (hydroxypropylcellulose) (HPC)) read?
Answer: 97 % of control

Question: What about the T/C (dose: 25.0 mg/kg/injection, vehicle: Klucel (hydroxypropylcellulose) (HPC)) of the same molecule?
Answer: 95 % of control

Question: And the T/C [14]?
Answer: 91 % of control

Question: And the T/C [15]?
Answer: 91 % of control

Question: And the T/C [16]?
Answer: 86 % of control

Question: How did the T/C [4] turn out when `c1ccc(-c2cc3cc4ccccc4cn3c2)cc1` was run?
Answer: 110 % of control

Question: And the T/C [5]?
Answer: 118 % of control

Question: And the T/C [6]?
Answer: 116 % of control

Question: What about the T/C [10] of the same molecule?
Answer: 105 % of control

Question: And the T/C (dose: 800.0 mg/kg/injection, vehicle: saline with Tween-80)?
Answer: 108 % of control

Question: Which T/C [17] does the source give for `COc1ccc(C(=O)C(CN(C)C)CN(C)C)cc1` here?
Answer: 92 % of control

Question: What about the T/C [18] of the same molecule?
Answer: 96 % of control

Question: And the T/C [11]?
Answer: 94 % of control

Question: What about the T/C [12] of the same molecule?
Answer: 97 % of control

Question: And the T/C [7]?
Answer: 102 % of control

Question: What does the source list for `Cc1ccc(C(=Nc2ccccc2)N=P(c2ccccc2)(c2ccccc2)c2ccccc2)cc1`?
Answer: T/C [2]: 94 % of control; T/C [3]: 114 % of control; T/C [4]: 99 % of control

Question: What does the source list for `NC(=O)/C=C/C(=O)c1c(Cl)cccc1Cl`?
Answer: T/C (dose: 0.78 mg/kg/injection, vehicle: saline with Tween-80): 100 % of control; T/C (dose: 1.56 mg/kg/injection, vehicle: saline with Tween-80): 103 % of control; T/C (dose: 3.12 mg/kg/injection, vehicle: saline with Tween-80): 90 % of control

Question: For `COc1ccc(S(=O)(=O)N/N=C/C(=O)O)cc1`, which T/C [1] is on record?
Answer: 101 % of control and 104 % of control

Question: What about the T/C [2] of the same molecule?
Answer: 116 % of control and 120 % of control

Question: What about the T/C [4] of the same molecule?
Answer: 119 % of control
